# Source: US12290596B2, “Compositions and methods for the treatment of opioid overdose” (priority 2021, dated 2025)
# Assay: Three-treatment crossover pharmacokinetics of IN nalmefene, three dosing regimens (Example 13)
# Conditions: human, plasma, […]
compound,measurement,setting,value
"C=C1CC[C@@]2(O)[C@H]3Cc4ccc(O)c5c4[C@@]2(CCN3CC2CC2)[C@H]1O5 [Nalmefene, 17-cyclopropylmethyl-4,5α-epoxy-6-methylenemorphinan-3,14-diol]",concentration at 0 h,"other: intranasal (IN spray), 6 mg, Mean, Time 0.00, T3: 6 mg nalmefene HCl IN, two 0.1 mL sprays in one nostril",0 ng/mL
same,concentration at 2.5 min,"other: intranasal (IN spray), 6 mg, Mean, Time 0.0416, T3: 6 mg nalmefene HCl IN, two 0.1 mL sprays in one nostril",1.35 ng/mL
same,concentration at […],"other: intranasal (IN spray), 6 mg, Mean, Time 0.0833, T3: 6 mg nalmefene HCl IN, two 0.1 mL sprays in one nostril",5.05 ng/mL
same,concentration at […],"other: intranasal (IN spray), 6 mg, Mean, Time 0.166, T3: 6 mg nalmefene HCl IN, two 0.1 mL sprays in one nostril",14.1 ng/mL
same,concentration at […],"other: intranasal (IN spray), 6 mg, Mean, Time 0.250, T3: 6 mg nalmefene HCl IN, two 0.1 mL sprays in one nostril",16.9 ng/mL
same,concentration at […],"other: intranasal (IN spray), 6 mg, Mean, Time 0.333, T3: 6 mg nalmefene HCl IN, two 0.1 mL sprays in one nostril",14.6 ng/mL
same,concentration at […],"other: intranasal (IN spray), 6 mg, Mean, Time 0.750, T3: 6 mg nalmefene HCl IN, two 0.1 mL sprays in one nostril",9.92 ng/mL
same,concentration at 1 h,"other: intranasal (IN spray), 6 mg, Mean, Time 1.00, T3: 6 mg nalmefene HCl IN, two 0.1 mL sprays in one nostril",9.59 ng/mL
same,concentration at 2 h,"other: intranasal (IN spray), 6 mg, Mean, Time 2.00, T3: 6 mg nalmefene HCl IN, two 0.1 mL sprays in one nostril",8.86 ng/mL
same,concentration at 3 h,"other: intranasal (IN spray), 6 mg, Mean, Time 3.00, T3: 6 mg nalmefene HCl IN, two 0.1 mL sprays in one nostril",6.9 ng/mL
same,concentration at 4 h,"other: intranasal (IN spray), 6 mg, Mean, Time 4.00, T3: 6 mg nalmefene HCl IN, two 0.1 mL sprays in one nostril",5.37 ng/mL
same,concentration at 6 h,"other: intranasal (IN spray), 6 mg, Mean, Time 6.00, T3: 6 mg nalmefene HCl IN, two 0.1 mL sprays in one nostril",3.69 ng/mL
same,concentration at 8 h,"other: intranasal (IN spray), 6 mg, Mean, Time 8.00, T3: 6 mg nalmefene HCl IN, two 0.1 mL sprays in one nostril",2.69 ng/mL
same,concentration at 12 h,"other: intranasal (IN spray), 6 mg, Mean, Time 12.0, T3: 6 mg nalmefene HCl IN, two 0.1 mL sprays in one nostril",1.93 ng/mL
same,concentration at 18 h,"other: intranasal (IN spray), 6 mg, Mean, Time 18.0, T3: 6 mg nalmefene HCl IN, two 0.1 mL sprays in one nostril",1.11 ng/mL
same,concentration at 24 h,"other: intranasal (IN spray), 6 mg, Mean, Time 24.0, T3: 6 mg nalmefene HCl IN, two 0.1 mL sprays in one nostril",0.792 ng/mL
same,concentration at 48 h,"other: intranasal (IN spray), 6 mg, Mean, Time 48.0, T3: 6 mg nalmefene HCl IN, two 0.1 mL sprays in one nostril",0.182 ng/mL
same,concentration at 0 h,"other: intranasal (IN spray), 6 mg, Median, Time 0.00, T3: 6 mg nalmefene HCl IN, two 0.1 mL sprays in one nostril",0 ng/mL
same,concentration at 2.5 min,"other: intranasal (IN spray), 6 mg, Median, Time 0.0416, T3: 6 mg nalmefene HCl IN, two 0.1 mL sprays in one nostril",0.746 ng/mL
same,concentration at […],"other: intranasal (IN spray), 6 mg, Median, Time 0.0833, T3: 6 mg nalmefene HCl IN, two 0.1 mL sprays in one nostril",2.58 ng/mL
same,concentration at […],"other: intranasal (IN spray), 6 mg, Median, Time 0.125, T3: 6 mg nalmefene HCl IN, two 0.1 mL sprays in one nostril",4.96 ng/mL
same,concentration at […],"other: intranasal (IN spray), 6 mg, Median, Time 0.166, T3: 6 mg nalmefene HCl IN, two 0.1 mL sprays in one nostril",8.55 ng/mL
same,concentration at […],"other: intranasal (IN spray), 6 mg, Median, Time 0.250, T3: 6 mg nalmefene HCl IN, two 0.1 mL sprays in one nostril",12.8 ng/mL
same,concentration at […],"other: intranasal (IN spray), 6 mg, Median, Time 0.750, T3: 6 mg nalmefene HCl IN, two 0.1 mL sprays in one nostril",9.69 ng/mL
same,concentration at 1 h,"other: intranasal (IN spray), 6 mg, Median, Time 1.00, T3: 6 mg nalmefene HCl IN, two 0.1 mL sprays in one nostril",8.88 ng/mL
same,concentration at 2 h,"other: intranasal (IN spray), 6 mg, Median, Time 2.00, T3: 6 mg nalmefene HCl IN, two 0.1 mL sprays in one nostril",8.6 ng/mL
same,concentration at 3 h,"other: intranasal (IN spray), 6 mg, Median, Time 3.00, T3: 6 mg nalmefene HCl IN, two 0.1 mL sprays in one nostril",6.35 ng/mL
same,concentration at 4 h,"other: intranasal (IN spray), 6 mg, Median, Time 4.00, T3: 6 mg nalmefene HCl IN, two 0.1 mL sprays in one nostril",4.89 ng/mL
same,concentration at 6 h,"other: intranasal (IN spray), 6 mg, Median, Time 6.00, T3: 6 mg nalmefene HCl IN, two 0.1 mL sprays in one nostril",3.51 ng/mL
same,concentration at 8 h,"other: intranasal (IN spray), 6 mg, Median, Time 8.00, T3: 6 mg nalmefene HCl IN, two 0.1 mL sprays in one nostril",2.46 ng/mL
same,concentration at 12 h,"other: intranasal (IN spray), 6 mg, Median, Time 12.0, T3: 6 mg nalmefene HCl IN, two 0.1 mL sprays in one nostril",1.82 ng/mL
same,concentration at 18 h,"other: intranasal (IN spray), 6 mg, Median, Time 18.0, T3: 6 mg nalmefene HCl IN, two 0.1 mL sprays in one nostril",1.12 ng/mL
same,concentration at 24 h,"other: intranasal (IN spray), 6 mg, Median, Time 24.0, T3: 6 mg nalmefene HCl IN, two 0.1 mL sprays in one nostril",0.729 ng/mL
same,concentration at 48 h,"other: intranasal (IN spray), 6 mg, Median, Time 48.0, T3: 6 mg nalmefene HCl IN, two 0.1 mL sprays in one nostril",0.176 ng/mL
same,concentration at 0 h,"other: intranasal (IN) spray, 3 mg, Max, T1 (3 mg IN, one spray in one nostril), time 0.00",0 ng/mL
same,concentration at 2.5 min,"other: intranasal (IN) spray, 3 mg, Max, T1 (3 mg IN, one spray in one nostril), time 0.0416",0.766 ng/mL
same,concentration at […],"other: intranasal (IN) spray, 3 mg, Max, T1 (3 mg IN, one spray in one nostril), time 0.125",16.9 ng/mL
same,concentration at […],"other: intranasal (IN) spray, 3 mg, Max, T1 (3 mg IN, one spray in one nostril), time 0.166",20.4 ng/mL
same,concentration at […],"other: intranasal (IN) spray, 3 mg, Max, T1 (3 mg IN, one spray in one nostril), time 0.250",22.1 ng/mL
same,concentration at […],"other: intranasal (IN) spray, 3 mg, Max, T1 (3 mg IN, one spray in one nostril), time 0.333",20.2 ng/mL
same,concentration at 1 h,"other: intranasal (IN) spray, 3 mg, Max, T1 (3 mg IN, one spray in one nostril), time 1.00",9.54 ng/mL
same,concentration at 2 h,"other: intranasal (IN) spray, 3 mg, Max, T1 (3 mg IN, one spray in one nostril), time 2.00",7.64 ng/mL
same,concentration at 3 h,"other: intranasal (IN) spray, 3 mg, Mean, T1 (3 mg IN, one spray in one nostril), time 3.00",3.7 ng/mL
same,concentration at 4 h,"other: intranasal (IN) spray, 3 mg, Mean, T1 (3 mg IN, one spray in one nostril), time 4.00",2.99 ng/mL
same,concentration at 6 h,"other: intranasal (IN) spray, 3 mg, Mean, T1 (3 mg IN, one spray in one nostril), time 6.00",2.06 ng/mL
same,concentration at 8 h,"other: intranasal (IN) spray, 3 mg, Mean, T1 (3 mg IN, one spray in one nostril), time 8.00",1.44 ng/mL
same,concentration at 12 h,"other: intranasal (IN) spray, 3 mg, Mean, T1 (3 mg IN, one spray in one nostril), time 12.0",0.992 ng/mL
same,concentration at 18 h,"other: intranasal (IN) spray, 3 mg, Mean, T1 (3 mg IN, one spray in one nostril), time 18.0",0.591 ng/mL
same,concentration at 24 h,"other: intranasal (IN) spray, 3 mg, Mean, T1 (3 mg IN, one spray in one nostril), time 24.0",0.412 ng/mL
same,concentration at 48 h,"other: intranasal (IN) spray, 3 mg, Mean, T1 (3 mg IN, one spray in one nostril), time 48.0",0.0942 ng/mL
same,concentration at 2.5 min,"other: intranasal (IN) spray, 3 mg, Median, T1 (3 mg IN, one spray in one nostril), time 0.0416",0.362 ng/mL
same,concentration at […],"other: intranasal (IN) spray, 3 mg, Median, T1 (3 mg IN, one spray in one nostril), time 0.0833",1.29 ng/mL
same,concentration at […],"other: intranasal (IN) spray, 3 mg, Median, T1 (3 mg IN, one spray in one nostril), time 0.125",3.65 ng/mL
same,concentration at […],"other: intranasal (IN) spray, 3 mg, Median, T1 (3 mg IN, one spray in one nostril), time 0.166",6.28 ng/mL
same,concentration at […],"other: intranasal (IN) spray, 3 mg, Median, T1 (3 mg IN, one spray in one nostril), time 0.250",8.04 ng/mL
same,concentration at […],"other: intranasal (IN) spray, 3 mg, Median, T1 (3 mg IN, one spray in one nostril), time 0.333",8.07 ng/mL
same,concentration at […],"other: intranasal (IN) spray, 3 mg, Median, T1 (3 mg IN, one spray in one nostril), time 0.750",5.85 ng/mL
same,concentration at 2 h,"other: intranasal (IN) spray, 3 mg, Median, T1 (3 mg IN, one spray in one nostril), time 2.00",4.62 ng/mL
same,concentration at 3 h,"other: intranasal (IN) spray, 3 mg, Min, T1 (3 mg IN, one spray in one nostril), time 3.00",2.16 ng/mL
same,concentration at 4 h,"other: intranasal (IN) spray, 3 mg, Min, T1 (3 mg IN, one spray in one nostril), time 4.00",1.97 ng/mL
same,concentration at 0 h,"other: intranasal, 3 mg, Mean, T1 (3 mg IN, one spray in one nostril), time 0.00",0 ng/mL
same,concentration at 2.5 min,"other: intranasal, 3 mg, Mean, T1 (3 mg IN, one spray in one nostril), time 0.0416",0.353 ng/mL
same,concentration at […],"other: intranasal, 3 mg, Mean, T1 (3 mg IN, one spray in one nostril), time 0.0833",2.38 ng/mL
same,concentration at […],"other: intranasal, 3 mg, Mean, T1 (3 mg IN, one spray in one nostril), time 0.125",5.1 ng/mL
same,concentration at […],"other: intranasal, 3 mg, Mean, T1 (3 mg IN, one spray in one nostril), time 0.166",7.78 ng/mL
same,concentration at […],"other: intranasal, 3 mg, Mean, T1 (3 mg IN, one spray in one nostril), time 0.250",9.17 ng/mL
same,concentration at […],"other: intranasal, 3 mg, Mean, T1 (3 mg IN, one spray in one nostril), time 0.333",8.79 ng/mL
same,concentration at […],"other: intranasal, 3 mg, Mean, T1 (3 mg IN, one spray in one nostril), time 0.750",5.99 ng/mL
same,concentration at 1 h,"other: intranasal, 3 mg, Mean, T1 (3 mg IN, one spray in one nostril), time 1.00",5.47 ng/mL
same,concentration at 2 h,"other: intranasal, 3 mg, Mean, T1 (3 mg IN, one spray in one nostril), time 2.00",4.99 ng/mL
same,concentration at 0 h,"other: intranasal, 3 mg, Median, T1 (3 mg IN, one spray in one nostril), time 0.00",0 ng/mL
same,concentration at 1 h,"other: intranasal, 3 mg, Median, T1 (3 mg IN, one spray in one nostril), time 1.00",5.11 ng/mL
same,concentration at 0 h,"other: intranasal, 3 mg, Min, T1 (3 mg IN, one spray in one nostril), time 0.00",0 ng/mL
same,concentration at 2.5 min,"other: intranasal, 3 mg, Min, T1 (3 mg IN, one spray in one nostril), time 0.0416",0 ng/mL
same,concentration at […],"other: intranasal, 3 mg, Min, T1 (3 mg IN, one spray in one nostril), time 0.0833",0.319 ng/mL
same,concentration at […],"other: intranasal, 3 mg, Min, T1 (3 mg IN, one spray in one nostril), time 0.125",0.642 ng/mL
same,concentration at […],"other: intranasal, 3 mg, Min, T1 (3 mg IN, one spray in one nostril), time 0.166",1.09 ng/mL
same,concentration at […],"other: intranasal, 3 mg, Min, T1 (3 mg IN, one spray in one nostril), time 0.250",1.88 ng/mL
same,concentration at […],"other: intranasal, 3 mg, Min, T1 (3 mg IN, one spray in one nostril), time 0.333",1.97 ng/mL
same,concentration at […],"other: intranasal, 3 mg, Min, T1 (3 mg IN, one spray in one nostril), time 0.750",2.52 ng/mL
same,concentration at 2 h,"other: intranasal, 3 mg, Min, T1 (3 mg IN, one spray in one nostril), time 2.00",3.28 ng/mL
same,concentration at 0 h,"other: intranasal, 6 mg, individual subject, Time 0.00, T3: 6 mg nalmefene HCl IN, two 0.1 mL sprays in one nostril",0 ng/mL
